In BindingDB's records for doi:10.1016/j.bmcl.2010.10.033 (Glaxosmithkline, 2010):

Assays:
[1] = Antagonist activity at CCR5 in HOS cells assessed as inhibition of HIV-1 Ba-L infection
[2] = Antagonist activity at CCR5 in human peripheral blood lymphocytes cells assessed as inhibition of HIV-1 Ba-L infection

Structure (SMILES) | IC50 [1] | IC50 [2]
C=CCN(C(=O)CCc1ccc(OC(F)(F)F)cc1)C1CCN(CCC2(c3cccc(F)c3)CCN(C(=O)c3cc(S(=O)(=O)NC)c(F)cc3Cl)CC2)CC1 [N-allyl-N-(1-(2-(1-(2-chloro-4-fluoro-5-(N-methylsulfamoyl)benzoyl)-4-(3-fluorophenyl)piperidin-4-yl)ethyl)piperidin-4-yl)-3-(4-(trifluoromethoxy)phenyl)propanamide] | 0.42 µM | 
C=CCN(C(=O)Cc1ccc(S(C)(=O)=O)cc1)C1CCN(CCC2(c3cccc(F)c3)CCN(C(=O)c3cc(S(=O)(=O)NC(C)(C)C)c(F)cc3Cl)CC2)CC1 [N-allyl-N-(1-(2-(1-(5-(N-tert-butylsulfamoyl)-2-chloro-4-fluorobenzoyl)-4-(3-fluorophenyl)piperidin-4-yl)ethyl)piperidin-4-yl)-2-(4-(methylsulfonyl)phenyl)acetamide] | 0.065 µM | 
C=CCN(C(=O)Cc1ccc(C(N)=O)cc1)C1CCN(CCC2(c3cccc(F)c3)CCN(C(=O)c3cc(S(=O)(=O)NC(C)(C)C)c(F)cc3Cl)CC2)CC1 [4-(2-(allyl(1-(2-(1-(5-(N-tert-butylsulfamoyl)-2-chloro-4-fluorobenzoyl)-4-(3-fluorophenyl)piperidin-4-yl)ethyl)piperidin-4-yl)amino)-2-oxoethyl)benzamide] | 0.21 µM | 
C=CCN(C(=O)NCc1ccc(C(N)=O)cc1)C1CCN(CCC2(c3cccc(F)c3)CCN(C(=O)c3cc(S(=O)(=O)NC(C)(C)C)c(F)cc3Cl)CC2)CC1 [4-((3-allyl-3-(1-(2-(1-(5-(N-tert-butylsulfamoyl)-2-chloro-4-fluorobenzoyl)-4-(3-fluorophenyl)piperidin-4-yl)ethyl)piperidin-4-yl)ureido)methyl)benzamide] | 3.1 µM | 
C=CCN(C(=O)Nc1ccc(OC(C)=O)cc1)C1CCN(CCC2(c3cccc(F)c3)CCN(C(=O)c3cc(S(=O)(=O)NC(C)(C)C)c(F)cc3Cl)CC2)CC1 [4-(3-allyl-3-(1-(2-(1-(5-(N-tert-butylsulfamoyl)-2-chloro-4-fluorobenzoyl)-4-(3-fluorophenyl)piperidin-4-yl)ethyl)piperidin-4-yl)ureido)phenyl acetate] | 0.06 µM | 
C=CCN(C(=O)Nc1ccc(F)cc1)C1CCN(CCC2(c3cccc(F)c3)CCN(C(=O)c3cc(S(=O)(=O)NC(C)(C)C)c(F)cc3Cl)CC2)CC1 [5-(4-(2-(4-(1-allyl-3-(4-fluorophenyl)ureido)piperidin-1-yl)ethyl)-4-(3-fluorophenyl)piperidine-1-carbonyl)-N-tert-butyl-4-chloro-2-fluorobenzenesulfonamide] | 0.034 µM | 
C=CCN(C(=O)OCc1ccc(C(=O)OC)cc1)C1CCN(CCC2(c3cccc(F)c3)CCN(C(=O)c3cc(S(=O)(=O)NC(C)(C)C)c(F)cc3Cl)CC2)CC1 [methyl 4-((allyl(1-(2-(1-(5-(N-tert-butylsulfamoyl)-2-chloro-4-fluorobenzoyl)-4-(3-fluorophenyl)piperidin-4-yl)ethyl)piperidin-4-yl)carbamoyloxy)methyl)benzoate] | 0.041 µM | 
C=CCN(C(=O)CCc1ccc(C#N)cc1)C1CCN(CCC2(c3cccc(F)c3)CCN(C(=O)c3cc(S(=O)(=O)NC)c(F)cc3Cl)CC2)CC1 [N-allyl-N-(1-(2-(1-(2-chloro-4-fluoro-5-(N-methylsulfamoyl)benzoyl)-4-(3-fluorophenyl)piperidin-4-yl)ethyl)piperidin-4-yl)-3-(4-cyanophenyl)propanamide] | 0.15 µM | 
C=CCN(C(=O)NCc1ccc(F)cc1)C1CCN(CCC2(c3cccc(F)c3)CCN(C(=O)c3cc(S(=O)(=O)NC(C)(C)C)c(F)cc3Cl)CC2)CC1 [5-(4-(2-(4-(1-allyl-3-(4-fluorobenzyl)ureido)piperidin-1-yl)ethyl)-4-(3-fluorophenyl)piperidine-1-carbonyl)-N-tert-butyl-4-chloro-2-fluorobenzenesulfonamide] | 0.046 µM | 
C=CCN(C(=O)Cc1ccc(F)cc1)C1CCN(CCC2(c3cccc(F)c3)CCN(C(=O)c3cc(S(=O)(=O)NC(C)(C)C)c(F)cc3Cl)CC2)CC1 [N-allyl-N-(1-(2-(1-(5-(N-tert-butylsulfamoyl)-2-chloro-4-fluorobenzoyl)-4-(3-fluorophenyl)piperidin-4-yl)ethyl)piperidin-4-yl)-2-(4-fluorophenyl)acetamide] | 0.052 µM | 
C=CCN(C(=O)Nc1ccc(C(F)(F)F)cc1)C1CCN(CCC2(c3cccc(F)c3)CCN(C(=O)c3cc(S(=O)(=O)NC(C)(C)C)c(F)cc3Cl)CC2)CC1 [5-(4-(2-(4-(1-allyl-3-(4-(trifluoromethyl)phenyl)ureido)piperidin-1-yl)ethyl)-4-(3-fluorophenyl)piperidine-1-carbonyl)-N-tert-butyl-4-chloro-2-fluorobenzenesulfonamide] | 0.064 µM | 

The next compounds have a lower IC50 [1] than those just listed; values first:

IC50 [1] | IC50 [2] | Structure (SMILES)
0.027 µM |  | C=CCN(C(=O)OCc1ccc(OC(F)(F)F)cc1)C1CCN(CCC2(c3cccc(F)c3)CCN(C(=O)c3cc(S(=O)(=O)NC(C)(C)C)c(F)cc3Cl)CC2)CC1 [4-(trifluoromethoxy)benzyl allyl(1-(2-(1-(5-(N-tert-butylsulfamoyl)-2-chloro-4-fluorobenzoyl)-4-(3-fluorophenyl)piperidin-4-yl)ethyl)piperidin-4-yl)carbamate]
0.026 µM | 0.146 µM | C=CCN(C(=O)NCc1ccc(C(=O)OC)cc1)C1CCN(CCC2(c3cccc(F)c3)CCN(C(=O)c3cc(S(=O)(=O)NC(C)(C)C)c(F)cc3Cl)CC2)CC1 [methyl 4-((3-allyl-3-(1-(2-(1-(5-(N-tert-butylsulfamoyl)-2-chloro-4-fluorobenzoyl)-4-(3-fluorophenyl)piperidin-4-yl)ethyl)piperidin-4-yl)ureido)methyl)benzoate]
0.022 µM |  | C=CCN(C(=O)OCc1ccc(F)cc1)C1CCN(CCC2(c3cccc(F)c3)CCN(C(=O)c3cc(S(=O)(=O)NC(C)(C)C)c(F)cc3Cl)CC2)CC1 [4-fluorobenzyl allyl(1-(2-(1-(5-(N-tert-butylsulfamoyl)-2-chloro-4-fluorobenzoyl)-4-(3-fluorophenyl)piperidin-4-yl)ethyl)piperidin-4-yl)carbamate]
0.0205 µM | 0.025 µM | C=CCN(C(=O)Nc1ccc(C#N)cc1)C1CCN(CCC2(c3cccc(F)c3)CCN(C(=O)c3cc(S(=O)(=O)NC(C)(C)C)c(F)cc3Cl)CC2)CC1 [5-(4-(2-(4-(1-allyl-3-(4-cyanophenyl)ureido)piperidin-1-yl)ethyl)-4-(3-fluorophenyl)piperidine-1-carbonyl)-N-tert-butyl-4-chloro-2-fluorobenzenesulfonamide]
0.018 µM | 0.087 µM | C=CCN(C(=O)Cc1ccc(OC(F)(F)F)cc1)C1CCN(CCC2(c3cccc(F)c3)CCN(C(=O)c3cc(S(=O)(=O)NC(C)(C)C)c(F)cc3Cl)CC2)CC1 [N-allyl-N-(1-(2-(1-(5-(N-tert-butylsulfamoyl)-2-chloro-4-fluorobenzoyl)-4-(3-fluorophenyl)piperidin-4-yl)ethyl)piperidin-4-yl)-2-(4-(trifluoromethoxy)phenyl)acetamide]
0.015 µM | 0.04 µM | C=CCN(C(=O)OCc1ccc(C(F)(F)F)cc1)C1CCN(CCC2(c3cccc(F)c3)CCN(C(=O)c3cc(S(=O)(=O)NC(C)(C)C)c(F)cc3Cl)CC2)CC1 [4-(trifluoromethyl)benzyl allyl(1-(2-(1-(5-(N-tert-butylsulfamoyl)-2-chloro-4-fluorobenzoyl)-4-(3-fluorophenyl)piperidin-4-yl)ethyl)piperidin-4-yl)carbamate]
0.0086 µM | 0.024 µM | C=CCN(C(=O)OCc1ccc([N+](=O)[O-])cc1)C1CCN(CCC2(c3cccc(F)c3)CCN(C(=O)c3cc(S(=O)(=O)NC(C)(C)C)c(F)cc3Cl)CC2)CC1 [4-nitrobenzyl allyl(1-(2-(1-(5-(N-tert-butylsulfamoyl)-2-chloro-4-fluorobenzoyl)-4-(3-fluorophenyl)piperidin-4-yl)ethyl)piperidin-4-yl)carbamate]
0.0069 µM | 0.042 µM | C=CCN(C(=O)NCc1ccc(C(F)(F)F)cc1)C1CCN(CCC2(c3cccc(F)c3)CCN(C(=O)c3cc(S(=O)(=O)NC(C)(C)C)c(F)cc3Cl)CC2)CC1 [5-(4-(2-(4-(1-allyl-3-(4-(trifluoromethyl)benzyl)ureido)piperidin-1-yl)ethyl)-4-(3-fluorophenyl)piperidine-1-carbonyl)-N-tert-butyl-4-chloro-2-fluorobenzenesulfonamide]
0.0045 µM |  | C=CCN(C(=O)OCc1ccc(C#N)cc1)C1CCN(CCC2(c3cccc(F)c3)CCN(C(=O)c3cc(S(=O)(=O)NC(C)(C)C)c(F)cc3Cl)CC2)CC1 [4-cyanobenzyl allyl(1-(2-(1-(5-(N-tert-butylsulfamoyl)-2-chloro-4-fluorobenzoyl)-4-(3-fluorophenyl)piperidin-4-yl)ethyl)piperidin-4-yl)carbamate]
0.0039 µM | 0.0037 µM | C=CCN(C(=O)NCc1ccc(C#N)cc1)C1CCN(CCC2(c3cccc(F)c3)CCN(C(=O)c3cc(S(=O)(=O)NC(C)(C)C)c(F)cc3Cl)CC2)CC1 [5-(4-(2-(4-(1-allyl-3-(4-cyanobenzyl)ureido)piperidin-1-yl)ethyl)-4-(3-fluorophenyl)piperidine-1-carbonyl)-N-tert-butyl-4-chloro-2-fluorobenzenesulfonamide]
0.0033 µM | 0.053 µM | C=CCN(C(=O)Cc1ccc(C(F)(F)F)cc1)C1CCN(CCC2(c3cccc(F)c3)CCN(C(=O)c3cc(S(=O)(=O)NC(C)(C)C)c(F)cc3Cl)CC2)CC1 [N-allyl-N-(1-(2-(1-(5-(N-tert-butylsulfamoyl)-2-chloro-4-fluorobenzoyl)-4-(3-fluorophenyl)piperidin-4-yl)ethyl)piperidin-4-yl)-2-(4-(trifluoromethyl)phenyl)acetamide]
0.0026 µM | 0.011 µM | CCCCN(C(=O)NCc1ccc(C#N)cc1)C1CCN(CCC2(c3cccc(F)c3)CCN(C(=O)c3cc(S(=O)(=O)NC(C)(C)C)c(F)cc3Cl)CC2)CC1 [N-tert-butyl-5-(4-(2-(4-(1-butyl-3-(4-cyanobenzyl)ureido)piperidin-1-yl)ethyl)-4-(3-fluorophenyl)piperidine-1-carbonyl)-4-chloro-2-fluorobenzenesulfonamide]
